Measurements from PMC4303311 (Biochemistry, 2014).

Biological target: T1, bacteriorhodopsin (BR) (Halobacterium salinarum, UniProt P02945)
T1 sequence (P02945 14-262): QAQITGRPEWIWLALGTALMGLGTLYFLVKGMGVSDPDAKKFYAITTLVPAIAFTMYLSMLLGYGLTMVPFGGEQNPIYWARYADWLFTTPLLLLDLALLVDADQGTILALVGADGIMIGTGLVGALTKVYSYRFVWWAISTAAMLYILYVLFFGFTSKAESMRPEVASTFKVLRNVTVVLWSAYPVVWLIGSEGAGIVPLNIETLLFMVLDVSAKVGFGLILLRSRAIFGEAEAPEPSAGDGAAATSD
Experiment: low-temperature FTIR-difference spectroscopy
Format: binding
Settings: covalent; protonated Schiff base; 80 K; native purple membrane

## CC1=C(/C=C/C(C)=C/C=C/C(C)=C/C=O)C(C)(C)CCC1 [A1 retinal, all-trans-retinal]
  low-temperature FTIR-difference spectroscopy: Negative bands appear at similar frequencies in the FTIR-difference spectrum of CaChR1 and BR
